# Laboratory results as given in publication PMC6934184, “Selective DNA-PKcs inhibition extends the therapeutic index of localized radiotherapy and chemotherapy” (The Journal of Clinical Investigation, 2019).
# Target: T1, NEK1 (Homo sapiens, UniProt Q96PY6)
# T1 construct: purchased Thermo Fisher Scientific (Life Technologies) SelectScreen
# Test: SelectScreen Z'LYTE
# Assay type: biochemical
# Procedure, shortened: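 SelectScreen broad panel; activity (Z'LYTE, Adapta) plus binding formats. ATP: Km app for CSF1R Z'LYTE; 10 for CAMK1 Adapta. Readout = % per kinase.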
# T1 sequence (Q96PY6 whole entry): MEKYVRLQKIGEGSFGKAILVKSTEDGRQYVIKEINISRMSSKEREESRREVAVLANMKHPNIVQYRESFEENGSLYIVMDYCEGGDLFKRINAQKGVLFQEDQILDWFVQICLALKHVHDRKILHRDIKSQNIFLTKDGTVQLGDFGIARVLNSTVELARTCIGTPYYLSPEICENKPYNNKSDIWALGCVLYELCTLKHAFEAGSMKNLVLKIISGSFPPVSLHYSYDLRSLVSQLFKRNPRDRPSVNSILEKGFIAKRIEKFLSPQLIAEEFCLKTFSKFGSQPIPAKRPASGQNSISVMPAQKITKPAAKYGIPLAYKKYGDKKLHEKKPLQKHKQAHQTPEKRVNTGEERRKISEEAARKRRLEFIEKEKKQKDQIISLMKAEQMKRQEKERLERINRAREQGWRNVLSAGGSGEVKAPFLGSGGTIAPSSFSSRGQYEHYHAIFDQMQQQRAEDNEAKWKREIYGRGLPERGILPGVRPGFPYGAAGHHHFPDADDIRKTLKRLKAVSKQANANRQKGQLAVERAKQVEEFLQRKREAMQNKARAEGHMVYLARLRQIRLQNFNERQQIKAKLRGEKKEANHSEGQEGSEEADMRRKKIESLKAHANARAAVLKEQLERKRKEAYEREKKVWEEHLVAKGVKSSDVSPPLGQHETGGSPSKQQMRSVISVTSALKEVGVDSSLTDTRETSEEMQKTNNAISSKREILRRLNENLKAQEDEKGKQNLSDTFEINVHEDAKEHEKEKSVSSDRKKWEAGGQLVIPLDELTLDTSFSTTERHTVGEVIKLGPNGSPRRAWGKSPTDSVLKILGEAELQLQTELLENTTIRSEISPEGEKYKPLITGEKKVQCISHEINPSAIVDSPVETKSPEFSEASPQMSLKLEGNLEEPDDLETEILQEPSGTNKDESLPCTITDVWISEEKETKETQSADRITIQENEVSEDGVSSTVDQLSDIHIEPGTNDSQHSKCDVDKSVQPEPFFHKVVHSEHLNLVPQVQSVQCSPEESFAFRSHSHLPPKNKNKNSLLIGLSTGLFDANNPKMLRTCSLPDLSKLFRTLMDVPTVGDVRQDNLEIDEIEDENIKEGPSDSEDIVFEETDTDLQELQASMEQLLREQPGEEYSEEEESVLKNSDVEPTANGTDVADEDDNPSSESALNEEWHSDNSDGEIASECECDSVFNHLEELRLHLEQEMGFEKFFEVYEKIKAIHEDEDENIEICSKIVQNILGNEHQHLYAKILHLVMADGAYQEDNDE
smiles,measurement,value
CN(C(=O)CN1CCOCC1)c1ccc2sc3c(-c4cccc5c(=O)cc(N6CC7CCC(C6)O7)oc45)cccc3c2c1 [NU5455],inhibition at 1 µM,12.9%
